In PubChem BioAssay AID1963975 (Molecular Pharmacology Branch, DTP, NCI, 2024):
pIC50: −log10 of the molar value.

System: 624824-186-R-J2-PDC multicell spheroids, viability
Test: Anticancer human tumor 624824-186-R-J2-PDC patient-derived colon adenocarcinoma cell line growth inhibition [PI3K]
Conditions: for pIC50: curve of first compound; for viability, T/C: stronger effect = lower value
Excerpt: Combinatorial screen of targeted agents with the PI3K inhibitors inavolisib, alpelisib, duvelisib, and copanlisib in multi-cell type tumor spheroids
A high-throughput screen of multi-cell type tumor spheroids was designed to identify active combinations of targeted small molecules and PI3K pathway inhibitors. Complex spheroids include a stromal component modeled by human endothelial cells (HUVEC) and fibroblasts modeled by human mesenchymal stem cells (MSCs). The concentration ranges selected for each drug and investigational agent were based upon clinically achievable concentrations if the clinical Cmax of the agent was known.
Compounds. The drugs and investigational agents: inavolisib (NSC800729), alpelisib (NSC765974), duvelisib (NSC772469), copanlisib (NSC816437), ipatasertib (NSC767898), afuresertib (NSC778305), talazoparib (NSC767125), sapanisertib (NSC764658), selumetinib (NSC741078), tovorafenib (DAY101, NSC766906), vemurafenib (NSC761431), ravoxertinib (NSC781343), sotorasib (NSC818433), MRTX1133 (NSC 836407), abemaciclib (NSC 768073), palbociclib (NSC758247), venetoclax (NSC 766270), SY5609 (NSC837396), enzalutamide (NSC755605), and darolutamide (NSC825331), were obtained from the National Cancer Institute (NCI) Developmental Therapeutics Program Chemical Repository. The FDA-approved anticancer drug set is available from the NCI Developmental Therapeutics Program. […] The stock solutions were prepared in dimethyl sulfoxide (DMSO, Sigma-Aldrich, St. Louis, MO, cat. D2650) at 800-fold the tested concentration and stored at -70 degrees C prior to their use. All drugs and investigational agents were tested over a range starting from a high concentration at or near the clinical Cmax and decreasing in half-log increments. If the clinical Cmax for an agent had not been determined, the highest concentration tested was 10 microM.
Cell Culture. All cells were maintained in an incubator at 37 degrees C and 5% CO2 with 95% humidity. The PDC lines were cultured according to standard operating procedures established by the NCI PDMR (https://pdmr.cancer.gov/sops/default.htm). All PDCs were thawed and cultured in Matrigel-coated flasks prepared with a working solution of 1X Ham's F-12 nutrient mix, without supplementation (Invitrogen, Waltham, MA, cat. 11765054), 100 U/mL penicillin-streptomycin (Invitrogen, cat. 15140122), and 2.5% Matrigel (Corning Inc., Corning, NY, cat. 354248) for the first three passages. The 354836-022-R-J1-PDC, 475296-252-R-J1-PDC, and 997726-040-R-J2-PDC lines were cultured in 6A media, which includes advanced DMEM/F-12 (Thermo Fisher Scientific, cat. 12634028), 10 mM HEPES (Thermo Fisher Scientific, cat. 15630080), 1X GlutaMAX supplement (Thermo Fisher Scientific, cat. 35050061), 0.1 mg/mL primocin (InvivoGen, San Diego, CA, cat. ant-pm-2), 10% defined fetal bovine serum, heat inactivated (HyClone Laboratories Inc., Logan, UT, cat. SH30070.03HI), 50% L-WRN conditioned media (ATCC, cat. CRL-3276), 1.25 mM N-Acetyl-L-cysteine (Sigma-Aldrich, cat. A9165), 10 mM nicotinamide (Sigma-Aldrich, cat. N0636), 1X B-27 supplement (Thermo Fisher Scientific, cat. 17504044), 1X N-2 supplement (Thermo Fisher Scientific, cat. 17502048), and 10 microM Y-27632 dihydrochloride (Tocris Bioscience, Bristol, United Kingdom, cat. 1254). The 624824-186-R-J2-PDC line was cultured in 6C/Colon 1B media, which includes all 6A media components plus 50 ng/mL human EGF recombinant protein (Thermo Fisher Scientific, cat. PHG0311). […]
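Also: spheroids exposed to agents for 7 days before viability read.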
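For viability, T/C in this document: 100% = DMSO vehicle treated spheroids.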

pIC50 (second compound 0.00316 µM): < 7.00
pIC50 (second compound 0.01 µM): < 7.00
pIC50 (second compound 0.0316 µM): < 7.00
pIC50 (second compound 0.1 µM): < 7.00
pIC50 (second compound 0.316 µM): < 7.00
pIC50 (second compound 1 µM): < 7.00
Structure (SMILES): CC(=O)c1c(C)c2cnc(Nc3ccc(N4CCNCC4)cn3)nc2n(C2CCCC2)c1=O + CC(Nc1ccc2c(c1)OCCn1cc(N3C(=O)OCC3C(F)F)nc1-2)C(N)=O
viability, T/C (second compound 0.00316 µM, first compound 0.000316 µM): 105%
viability, T/C (second compound 0.00316 µM, first compound 0.001 µM): 80.9%
viability, T/C (second compound 0.00316 µM, first compound 0.00316 µM): 108%
viability, T/C (second compound 0.00316 µM, first compound 0.01 µM): 96.2%
viability, T/C (second compound 0.00316 µM, first compound 0.0316 µM): 82.7%
viability, T/C (second compound 0.00316 µM, first compound 0.1 µM): 89.9%
viability, T/C (second compound 0.01 µM, first compound 0.000316 µM): 114%
viability, T/C (second compound 0.01 µM, first compound 0.001 µM): 92.7%
viability, T/C (second compound 0.01 µM, first compound 0.00316 µM): 106%
viability, T/C (second compound 0.01 µM, first compound 0.01 µM): 101%
viability, T/C (second compound 0.01 µM, first compound 0.0316 µM): 93.7%
viability, T/C (second compound 0.01 µM, first compound 0.1 µM): 91.7%
viability, T/C (second compound 0.0316 µM, first compound 0.000316 µM): 104%
viability, T/C (second compound 0.0316 µM, first compound 0.001 µM): 94.2%
viability, T/C (second compound 0.0316 µM, first compound 0.00316 µM): 113%
viability, T/C (second compound 0.0316 µM, first compound 0.01 µM): 85.2%
viability, T/C (second compound 0.0316 µM, first compound 0.0316 µM): 101%
viability, T/C (second compound 0.0316 µM, first compound 0.1 µM): 102%
viability, T/C (second compound 0.1 µM, first compound 0.000316 µM): 86.7%
viability, T/C (second compound 0.1 µM, first compound 0.001 µM): 101%
viability, T/C (second compound 0.1 µM, first compound 0.00316 µM): 91.2%
viability, T/C (second compound 0.1 µM, first compound 0.01 µM): 75.5%
viability, T/C (second compound 0.1 µM, first compound 0.0316 µM): 80.1%
viability, T/C (second compound 0.1 µM, first compound 0.1 µM): 87.7%
viability, T/C (second compound 0.316 µM, first compound 0.000316 µM): 87.7%
viability, T/C (second compound 0.316 µM, first compound 0.001 µM): 76.6%
viability, T/C (second compound 0.316 µM, first compound 0.00316 µM): 78.8%
viability, T/C (second compound 0.316 µM, first compound 0.01 µM): 85.8%
viability, T/C (second compound 0.316 µM, first compound 0.0316 µM): 87%
viability, T/C (second compound 0.316 µM, first compound 0.1 µM): 113%
viability, T/C (second compound 1 µM, first compound 0.000316 µM): 90%
viability, T/C (second compound 1 µM, first compound 0.001 µM): 85.4%
viability, T/C (second compound 1 µM, first compound 0.00316 µM): 86.5%
viability, T/C (second compound 1 µM, first compound 0.01 µM): 87.3%
viability, T/C (second compound 1 µM, first compound 0.0316 µM): 86.1%
viability, T/C (second compound 1 µM, first compound 0.1 µM): 93.1%
